From US7501430B2 (ArQule, Inc., priority 2006, dated 2009)

Target: T1, mutant B-RAF (Homo sapiens, UniProt P15056, V600E)
T1 construct: purchased Upstate (Charlottesville, Va.)
Experiment: RAF biochemical assay (MEK-1 phosphorylation, anti-phospho MEK1/2 detection)
Conditions: for inhibition at 10 µM: read-out: Mutant B-RAF % inhibition; for IC50: read-out: Mutant B-RAF IC50
In short: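 Detection is by ELISA: after a 30 min room-temperature reaction, plate-captured GST-MEK-1 is probed with anti-phospho MEK1/2, then an AP-tagged secondary antibody with fluorescent Attophos read-out.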

T1 sequence (P15056 whole entry V600E): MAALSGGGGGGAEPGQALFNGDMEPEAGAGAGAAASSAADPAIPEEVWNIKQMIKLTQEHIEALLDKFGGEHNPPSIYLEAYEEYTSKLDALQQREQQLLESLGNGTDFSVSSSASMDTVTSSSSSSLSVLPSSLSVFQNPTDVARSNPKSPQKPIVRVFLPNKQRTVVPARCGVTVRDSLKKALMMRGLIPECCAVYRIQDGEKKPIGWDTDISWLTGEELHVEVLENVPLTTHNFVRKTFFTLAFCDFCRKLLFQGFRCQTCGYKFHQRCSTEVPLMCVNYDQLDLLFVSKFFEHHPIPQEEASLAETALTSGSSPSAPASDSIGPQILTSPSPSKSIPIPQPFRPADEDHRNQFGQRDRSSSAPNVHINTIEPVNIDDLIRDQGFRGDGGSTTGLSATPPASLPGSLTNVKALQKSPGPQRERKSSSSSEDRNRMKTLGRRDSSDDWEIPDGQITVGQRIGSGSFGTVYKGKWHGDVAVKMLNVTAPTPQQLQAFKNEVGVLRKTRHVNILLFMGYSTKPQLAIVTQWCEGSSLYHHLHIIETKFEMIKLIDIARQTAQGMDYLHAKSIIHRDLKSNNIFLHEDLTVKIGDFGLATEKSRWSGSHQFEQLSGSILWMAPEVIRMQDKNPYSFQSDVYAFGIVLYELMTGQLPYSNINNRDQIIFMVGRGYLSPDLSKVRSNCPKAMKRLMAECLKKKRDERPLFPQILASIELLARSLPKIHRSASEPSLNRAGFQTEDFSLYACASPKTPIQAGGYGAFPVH

Structure (SMILES)	inhibition at 10 µM	IC50	further results
COc1cccc(OC)c1C(=O)N1CCC(Nc2nccc(-c3c(-c4ccc(F)cc4)nc4occn34)n2)CC1 [Example 210, N-[1-(2,6-dimethoxybenzoyl)piperidin-4-yl]-4-[6-(4-fluorophenyl)imidazo[2,1-b][1,3]oxazol-5-yl]pyrimidin-2-amine]	38%	–	–
CC(=O)NCC(=O)N1CCC(Nc2nccc(-c3c(-c4ccc(F)cc4)nc4occn34)n2)CC1 [Example 211, N-{2-[4-({4-[6-(4-fluorophenyl)imidazo[2,1-b][1,3]oxazol-5-yl]pyrimidin-2-yl}amino)piperidin-1-yl]-2-oxoethyl}acetamide]	29%	–	–
CC(=O)NC(CO)C(=O)N1CCC(Nc2nccc(-c3c(-c4ccc(F)cc4)nc4occn34)n2)CC1 (stereo not drawn) [Example 212, N-[2-[4-({4-[6-(4-fluorophenyl)imidazo[2,1-b][1,3]oxazol-5-yl]pyrimidin-2-yl}amino)piperidin-1-yl]-1-(hydroxymethyl)-2-oxoethyl]acetamide]	43%	–	–
CCNC(=O)N1CCC(Nc2nccc(-c3c(-c4cccc(OC)c4)nc4sccn34)n2)CC1 [Example 213, N-ethyl-4-({4-[6-(3-methoxyphenyl)imidazo[2,1-b][1,3]thiazol-5-yl]pyrimidin-2-yl}amino)piperidine-1-carboxamide]	–	2040 nM	–
COc1cccc(-c2nc3sccn3c2-c2ccnc(NC3CCN(S(=O)(=O)c4ccc(F)cc4)CC3)n2)c1 [Example 214, N-{1-[(4-fluorophenyl)sulfonyl]piperidin-4-yl}-4-[6-(3-methoxyphenyl)imidazo[2,1-b][1,3]thiazol-5-yl]pyrimidin-2-amine]	–	392 nM	–
Cc1ccnc(SCC(=O)N2CCC(Nc3nccc(-c4c(-c5ccc(F)cc5)nc5occn45)n3)CC2)n1 [Example 215, 4-[6-(4-fluorophenyl)imidazo[2,1-b][1,3]oxazol-5-yl]-N-(1-{[(4-methylpyrimidin-2-yl)thio]acetyl}piperidin-4-yl)pyrimidin-2-amine]	40%	–	–
COc1cccc(-c2nc3sccn3c2-c2ccnc(NC3CCN(C(=O)Nc4ccc(N(C)C)cc4)CC3)n2)c1 [Example 216, N-[4-(dimethylamino)phenyl]-4-({4-[6-(3-methoxyphenyl)imidazo[2,1-b][1,3]thiazol-5-yl]pyrimidin-2-yl}amino)piperidine-1-carboxamide]	58%	–	–
O=S(=O)(c1ccc(F)cc1)N1CCC(Nc2nccc(-c3c(-c4ccc(F)c(F)c4)nc4sccn34)n2)CC1 [Example 217, 4-[6-(3,4-difluorophenyl)imidazo[2,1-b][1,3]thiazol-5-yl]-N-{1-[(4-fluorophenyl)sulfonyl]piperidin-4-yl}pyrimidin-2-amine]	48%	–	–
CCNC(=O)N1CCC(Nc2nccc(-c3c(-c4ccc(F)c(F)c4)nc4sccn34)n2)CC1 [Example 218, 4-({4-[6-(3,4-difluorophenyl)imidazo[2,1-b][1,3]thiazol-5-yl]pyrimidin-2-yl}amino)-N-ethylpiperidine-1-carboxamide]	–	1220 nM	–
Cc1cn2c(-c3ccnc(NC4CCN(S(=O)(=O)c5ccc(F)cc5)CC4)n3)c(-c3ccc(F)cc3)nc2s1 [Example 219, 4-[6-(4-fluorophenyl)-2-methylimidazo[2,1-b][1,3]thiazol-5-yl]-N-{1-[(4-fluorophenyl)sulfonyl]piperidin-4-yl}pyrimidin-2-amine]	–	51 nM	–
CCNC(=O)N1CCC(Nc2nccc(-c3c(-c4ccc(F)cc4)nc4sc(C)cn34)n2)CC1 [Example 220, N-ethyl-4-({4-[6-(4-fluorophenyl)-2-methylimidazo[2,1-b][1,3]thiazol-5-yl]pyrimidin-2-yl}amino)piperidine-1-carboxamide]	–	428 nM	–
CN(C)c1ccc(C(=O)N2CCC(Nc3nccc(-c4c(-c5ccc(F)c(F)c5)nc5sccn45)n3)CC2)cc1 [Example 221, 4-[6-(3,4-difluorophenyl)imidazo[2,1-b][1,3]thiazol-5-yl]-N-{1-[4-(dimethylamino)benzoyl]piper-idin-4-yl}pyrimidin-2-amine]	42%	–	–
CN(C)c1ccc(C(=O)N2CCC(Nc3nccc(-c4c(-c5ccc(F)cc5)nc5occn45)n3)CC2)cc1 [Example 222, N-{1-[4-(dimethylamino)benzoyl]piperidin-4-yl}-4-[6-(4-fluorophenyl)imidazo[2,1-b][1,3]oxazol-5-yl]pyrimidin-2-amine]	45%	–	–
Fc1ccc(-c2nc3sccn3c2-c2ccnc(NC3CCNCC3)n2)cc1F [Example 223, 4-[6-(3,4-difluorophenyl)imidazo[2,1-b][1,3]thiazol-5-yl]-N-piperidin-4-ylpyrimidin-2-amine]	71%	–	–
Cc1cn2c(-c3ccnc(NC4CCNCC4)n3)c(-c3ccc(F)cc3)nc2s1 [Example 224, 4-[6-(4-fluorophenyl)-2-methylimidazo[2,1-b][1,3]thiazol-5-yl]-N-piperidin-4-ylpyrimidin-2-amine]	70%	–	–
Cc1cn2c(-c3ccnc(NC4CCN(C(=O)Nc5ccc(N(C)C)cc5)CC4)n3)c(-c3ccc(F)cc3)nc2s1 [Example 225, N-[4-(dimethylamino)phenyl]-4-({4-[6-(4-fluorophenyl)-2-methylimidazo[2,1-b][1,3]thiazol-5-yl]pyrimidin-2-yl}amino)piperidine-1-carboxamide]	38%	–	–
CN(C)c1ccc(NC(=O)N2CCC(Nc3nccc(-c4c(-c5ccc(F)c(F)c5)nc5sccn45)n3)CC2)cc1 [Example 226, 4-({4-[6-(3,4-difluorophenyl)imidazo[2,1-b][1,3]thiazol-5-yl]pyrimidin-2-yl}amino)-N-[4-(dimethylamino)phenyl]piper-idine-1-carboxamide]	61%	–	–
COc1ccc(Cl)cc1S(=O)(=O)N1CCC(Nc2nccc(-c3c(-c4ccc(F)cc4)nc4occn34)n2)CC1 [Example 227, N-{1-[(5-chloro-2-methoxyphenyl)sulfonyl]piper-idin-4-yl}-4-[6-(4-fluorophenyl)imidazo[2,1-b][1,3]oxazol-5-yl]pyrimidin-2-amine]	27%	–	–
CC(=O)Nc1nc(C)c(S(=O)(=O)N2CCC(Nc3nccc(-c4c(-c5ccc(F)cc5)nc5occn45)n3)CC2)s1 [Example 228, N-(5-{(4-({4-[6-(4-fluorophenyl)imidazo[2,1-b][1,3]oxazol-5-yl]pyrimidin-2-yl}amino)piperidin-1-yl]sulfonyl}-4-methyl-1,3-thiazol-2-yl)acetamide]	40%	–	–
O=C(O)c1ccc(S(=O)(=O)N2CCC(Nc3nccc(-c4c(-c5ccc(F)cc5)nc5occn45)n3)CC2)cc1 [Example 229, 4-{[4-({4-[6-(4-fluorophenyl)imidazo[2,1-b][1,3]oxazol-5-yl]pyrimidin-2-yl}amino)piperidin-1-yl]sulfonyl)benzoic acid]	–	1370 nM	–
Cc1nc(C)c(S(=O)(=O)N2CCC(Nc3nccc(-c4c(-c5ccc(F)cc5)nc5occn45)n3)CC2)s1 [Example 230, N-{1-[(2,4-dimethyl-1,3-thiazol-5-yl)sulfonyl]piperidin-4-yl)-4-[6-(4-fluorophenyl)imidazo[2,1-b][1,3]oxazol-5-yl]pyrimidin-2-amine]	50%	–	–
COc1cccc(S(=O)(=O)N2CCC(Nc3nccc(-c4c(-c5ccc(F)cc5)nc5occn45)n3)CC2)c1 [Example 231, 4-[6-(4-fluorophenyl)imidazo[2,1-b][1,3]oxazol-5-yl]-N-{1-[(3-methoxyphenyl)sulfonyl]piperidin-4-yl}pyrimidin-2-amine]	–	408 nM	–
CCN(C)C(=O)N1CCC(Nc2nccc(-c3c(-c4ccc(F)cc4)nc4sccn34)n2)CC1 [Example 232, N-ethyl-4-({4-[6-(4-fluorophenyl)imidazo[2,1-b][1,3]thiazol-5-yl]pyrimidin-2-yl}amino)-N-methylpiperidine-1-carboxamide]	56%	–	–
COc1cccc(-c2nc3sccn3c2-c2ccnc(NC3CCN(C(=O)NCc4ccccc4)CC3)n2)c1 [Example 233, N-benzyl-4-({4-[6-(3-methoxyphenyl)imidazo[2,1-b][1,3]thiazol-5-yl]pyrimidin-2-yl}amino)piperidine-1-carboxamide]	53%	–	–
COc1cccc(-c2nc3sccn3c2-c2ccnc(NC3CCN(C(=O)NCc4ccco4)CC3)n2)c1 [Example 234, N-(2-furylmethyl)-4-({4-[6-(3-methoxyphenyl)imidazo[2,1-b][1,3]thiazol-5-yl]pyrimidin-2-yl}amino)piperidine-1-carboxamide]	–	825 nM	–
Cc1ccccc1S(=O)(=O)N1CCC(Nc2nccc(-c3c(-c4ccc(F)cc4)nc4occn34)n2)CC1 [Example 235, 4-[6-(4-fluorophenyl)imidazo[2,1-b][1,3]oxazol-5-yl]-N-{1-[(2-methylphenyl)sulfonyl]piperidin-4-yl}pyrimidin-2-amine]	30%	–	–
O=S(=O)(c1c(F)cccc1F)N1CCC(Nc2nccc(-c3c(-c4ccc(F)cc4)nc4occn34)n2)CC1 [Example 236, N-{1-[(2,6-difluorophenyl)sulfonyl]piperidin-4-yl}-4-[6-(4-fluorophenyl)imidazo[2,1-b][1,3]oxazol-5-yl]pyrimidin-2-amine]	30%	–	–
O=S(=O)(c1cccc(F)c1)N1CCC(Nc2nccc(-c3c(-c4ccc(F)cc4)nc4occn34)n2)CC1 [Example 237, 4-[6-(4-fluorophenyl)imidazo[2,1-b][1,3]oxazol-5-yl]-N-{1-[(3-fluorophenyl)sulfonyl]piper-idin-4-yl}pyrimidin-2-amine]	–	–	inhibition at 5 µM (@ 5 uM): 85%
O=S(=O)(c1ccc(Oc2ccccc2)cc1)N1CCC(Nc2nccc(-c3c(-c4ccc(F)cc4)nc4occn34)n2)CC1 [Example 238, 4-[6-(4-fluorophenyl)imidazo[2,1-b][1,3]oxazol-5-yl]-N-{1-[(4-phenoxyphenyl)sulfonyl]piper-idin-4-yl}pyrimidin-2-amine]	–	> 10000 nM	–
O=S(=O)(c1ccc(C(F)(F)F)cc1)N1CCC(Nc2nccc(-c3c(-c4ccc(F)cc4)nc4occn34)n2)CC1 [Example 239, 4-[6-(4-fluorophenyl)imidazo[2,1-b][1,3]oxazol-5-yl]-N-(1-{[4-(trifluoromethyl)phenyl]sulfonyl}piperidin-4-yl)pyrimidin-2-amine]	–	–	inhibition at 3 µM (@ 3 uM): 52%
